Assay results as given in ChEMBL document CHEMBL4038335, “Neuroactive Steroids. 2. 3α-Hydroxy-3β-methyl-21-(4-cyano-1H-pyrazol-1'-yl)-19-nor-5β-pregnan-20-one (SAGE-217): A Clinical Next Generation Neuroactive Steroid Positive Allosteric Modulator of the (γ-Aminobutyric Acid)A Receptor” (J Med Chem, 2017).
Converted amounts (≈) assume the structure as drawn.

Key:
Cytochrome P450 2B6 = Cytochrome P450 2B6 (Homo sapiens, UniProt P20813); test: Inhibition of CYP2B6 (unknown origin); format: ADME
[1] = Protein binding in human plasma at 10 uM after 6 hrs by equilibrium dialysis; format: ADME, cell-free; settings: read-out: PPB (converted)
[2] = target: Glycine receptor subunit alpha-1 (Homo sapiens) (UniProt P23415); test: Binding affinity to human glycine alpha 1 receptor expressed in HEK293 cells at 10 uM by IonFlux based assay; format: cell-based
[3] = target: Sigma non-opioid intracellular receptor 1 (Homo sapiens) (UniProt Q99720); test: Displacement of [3H](+)pentazocine from human sigma1-receptor at 10 uM after 120 mins by scintillation counting
Cytochrome P450 2C9 = Cytochrome P450 2C9 (Homo sapiens, UniProt P11712); test: Inhibition of CYP2C9 (unknown origin); format: ADME
[4] = Ratio of drug level in Sprague-Dawley rat brain to plasma at 5 mg/kg, iv measured at 30 mins post dose by LC/MS-MS analysis; format: ADME, organism-based; settings: read-out: BPR
[5] = target: Sodium channel protein type 5 subunit alpha (Homo sapiens, UniProt Q14524); test: Inhibition of Nav1.5 (unknown origin) by patch clamp assay
[6] = target: Voltage-gated inwardly rectifying potassium channel KCNH2 (Homo sapiens, UniProt Q12809); test: Inhibition of human ERG by patch clamp assay
[7] = Clearance in dog hepatocytes at 10 uM preincubated for 5 mins […] measured over 60 mins by HPLC-MS/MS analysis; format: ADME, cell-based, Canis lupus familiaris, Hepatocyte; settings: 1 h
[8] = Protein binding in dog plasma at 10 uM after 6 hrs by equilibrium dialysis; format: ADME, cell-free, Canis lupus familiaris; settings: read-out: PPB (converted)
[9] = Oral bioavailability in CD1 mouse at 20 mg/kg measured up to 8 hrs post dose by LC/MS-MS analysis; format: ADME, organism-based; settings: in vivo
[10] = Clearance in Beagle dog at 5 mg/kg, iv or 20 mg/kg, po measured up to 8 hrs post dose by LC/MS-MS analysis; format: ADME, organism-based, Canis lupus familiaris; settings: in vivo
[11] = Clearance in human hepatic microsomes at 10 uM preincubated for 5 mins followed by NADPH addition measured over 60 mins by HPLC-MS/MS analysis; format: ADME, Microsome; settings: liver microsomes
Mus musculus = test: Anticonvulsant activity in PTZ-induced seizure mouse model at 0.3 to 3 mg/kg, ip; format: functional
Cytochrome P450 1A2 = Cytochrome P450 1A2 (Homo sapiens, UniProt P05177); test: Inhibition of CYP1A2 (unknown origin); format: ADME
[12] = target: Gamma-aminobutyric acid receptor subunit alpha-4/beta3/delta (Homo sapiens, UniProt O14764+P28472+P48169); test: (§1) Positive allosteric modulation of GABAA receptor alpha4beta3delta (unknown origin) expressed in CHO cells assessed as potentiation of GABA-mediated increase in channel current under holding potential at -80 mV preincubated for 30 secs followed by GABA stimulation for 2 secs by manual patch clamp assay; format: cell-based
[13] = Protein binding in mouse plasma at 10 uM after 6 hrs by equilibrium dialysis; format: ADME, cell-free; settings: read-out: PPB
[14] = target: Voltage-dependent L-type calcium channel subunit alpha-1C (Homo sapiens, UniProt Q13936); test: Inhibition of Cav1.2 (unknown origin) by patch clamp assay
[15] = Clearance in CD1 mouse at 5 mg/kg, iv or 20 mg/kg, po measured up to 8 hrs post dose by LC/MS-MS analysis; format: ADME, organism-based; settings: in vivo
[16] = target: Transient receptor potential cation channel subfamily V member 1 (Homo sapiens) (UniProt Q8NER1); test: Antagonist activity at human TRPV1 expressed in CHOK1 cells assessed as inhibition of capsaicin-induced Ca2+ flux at 10 uM by spectrophotometric analysis; format: cell-based
Cytochrome P450 3A4 = Cytochrome P450 3A4 (Homo sapiens, UniProt P08684); test: Inhibition of CYP3A4 (unknown origin); format: ADME
[17] = Protein binding in rat plasma at 10 uM after 6 hrs by equilibrium dialysis; format: ADME, cell-free; settings: read-out: PPB (converted)
[18] = target: GABA-A receptor; alpha-1/beta-2/gamma-2 (Homo sapiens) (UniProt P14867+P47870+P18507); test: as §1, with “alpha1beta2gamma2” for “alpha4beta3delta”, “mouse LTK” for “CHO”, “mV at 0.01 to 10 uM” for “mV”, “automated” for “manual”, “assay relative to GABA” for “assay”; format: cell-based
[19] = target: Kv channel-interacting protein 2/Potassium voltage-gated channel subfamily D member 3 (Homo sapiens, UniProt Q9NS61+Q9UK17); test: Inhibition of Kv4.3(unknown origin)/KChIP2.2 (unknown origin) by patch clamp assay
[20] = Oral bioavailability in Beagle dog at 20 mg/kg measured up to 8 hrs post dose by LC/MS-MS analysis; format: ADME, organism-based, Canis lupus familiaris; settings: in vivo
Cytochrome P450 2C19 = Cytochrome P450 2C19 (Homo sapiens, UniProt P33261); test: Inhibition of CYP2C19 (unknown origin); format: ADME
[21] = Clearance in rat hepatocytes at 10 uM preincubated for 5 mins […] measured over 60 mins by HPLC-MS/MS analysis; format: ADME, cell-based, Hepatocyte; settings: 1 h
[22] = target: Potassium voltage-gated channel subfamily A member 5 (Homo sapiens, UniProt P22460); test: Inhibition of Kv1.5 (unknown origin) by patch clamp assay
[23] = target: Potassium/sodium hyperpolarization-activated cyclic nucleotide-gated channel 2 (Homo sapiens, UniProt Q9UL51); test: Inhibition of HCN2 (unknown origin) by patch clamp assay
[24] = Clearance in human hepatocytes at 10 uM preincubated for 5 mins […] measured over 60 mins by HPLC-MS/MS analysis; format: ADME, cell-based, Hepatocyte; settings: 1 h
[25] = Clearance in dog hepatic microsomes at 10 uM preincubated for 5 mins followed by NADPH addition measured over 60 mins by HPLC-MS/MS analysis; format: ADME, Canis lupus familiaris, Liver, Microsome; settings: 1 h
Cytochrome P450 2D6 = Cytochrome P450 2D6 (Homo sapiens, UniProt P10635); test: Inhibition of CYP2D6 (unknown origin); format: ADME
[26] = Clearance in mouse hepatic microsomes at 10 uM preincubated for 5 mins followed by NADPH addition measured over 60 mins by HPLC-MS/MS analysis; format: ADME, Microsome; settings: liver microsomes
[27] = Oral bioavailability in Sprague-Dawley rat at 20 mg/kg measured up to 8 hrs post dose by LC/MS-MS analysis; format: ADME, organism-based; settings: in vivo
[28] = Clearance in mouse hepatocytes at 10 uM preincubated for 5 mins […] measured over 60 mins by HPLC-MS/MS analysis; format: ADME, cell-based, Hepatocyte; settings: read-out: CLH (converted)
[29] = target: Voltage-gated potassium channel, IKs; KCNQ1(Kv7.1)/KCNE1(MinK) (Homo sapiens, UniProt P15382+P51787); test: Inhibition of KCNQ1/minK (unknown origin) by patch clamp assay
[30] = Displacement of [35S]TBPS from GABA-A receptor in Sprague-Dawley rat cerebral cortex cell membranes after 90 mins in presence of GABA by liquid scintillation counting
[31] = Clearance in Sprague-Dawley rat at 5 mg/kg, iv or 20 mg/kg, po measured up to 8 hrs post dose by LC/MS-MS analysis; format: ADME, organism-based; settings: in vivo
[32] = Clearance in rat hepatic microsomes at 10 uM preincubated for 5 mins followed by NADPH addition measured over 60 mins by HPLC-MS/MS analysis; format: ADME, Microsome; settings: liver microsomes
Canis familiaris = test: Clearance in Beagle dog at 5 mg/kg, iv or 20 mg/kg, po measured up to 8 hrs post dose by LC/MS-MS analysis relative to hepatic blood flow; format: ADME, organism-based, Canis lupus familiaris; settings: in vivo
[33] = Lipophilicity, logD of compound at 20 uM at pH 7.4 by HPLC/MS-MS analysis; format: physicochemical; settings: buffer
[34] = target: GABA-A receptor alpha-4/beta-3/delta (Homo sapiens, UniProt P28472+P48169+); test: as §1, with “mV at 0.01 to 10 uM” for “mV”, “assay relative to GABA” for “assay”; format: cell-based; settings: 2 s
[35] = target: Inward rectifier potassium channel 2 (Homo sapiens, UniProt P63252); test: Inhibition of Kir2.1 (unknown origin) by patch clamp assay
[36] = Thermodynamic aqueous solubility of compound at 10 uM sonicated for 1 min followed by incubation for 1 hr by HPLC-MS/MS; format: physicochemical; settings: buffer; read-out: Therm_solubility

Sequence of Sigma non-opioid intracellular receptor 1 (Homo sapiens) (Q99720 whole entry): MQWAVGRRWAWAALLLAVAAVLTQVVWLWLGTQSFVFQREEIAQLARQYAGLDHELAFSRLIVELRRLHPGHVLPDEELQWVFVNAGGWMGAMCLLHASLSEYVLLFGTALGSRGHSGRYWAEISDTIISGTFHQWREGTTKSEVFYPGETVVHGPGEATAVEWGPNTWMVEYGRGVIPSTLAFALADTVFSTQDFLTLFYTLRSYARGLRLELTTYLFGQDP
Sequence of Voltage-gated potassium channel, IKs; KCNQ1(Kv7.1)/KCNE1(MinK) (P51787 whole entry): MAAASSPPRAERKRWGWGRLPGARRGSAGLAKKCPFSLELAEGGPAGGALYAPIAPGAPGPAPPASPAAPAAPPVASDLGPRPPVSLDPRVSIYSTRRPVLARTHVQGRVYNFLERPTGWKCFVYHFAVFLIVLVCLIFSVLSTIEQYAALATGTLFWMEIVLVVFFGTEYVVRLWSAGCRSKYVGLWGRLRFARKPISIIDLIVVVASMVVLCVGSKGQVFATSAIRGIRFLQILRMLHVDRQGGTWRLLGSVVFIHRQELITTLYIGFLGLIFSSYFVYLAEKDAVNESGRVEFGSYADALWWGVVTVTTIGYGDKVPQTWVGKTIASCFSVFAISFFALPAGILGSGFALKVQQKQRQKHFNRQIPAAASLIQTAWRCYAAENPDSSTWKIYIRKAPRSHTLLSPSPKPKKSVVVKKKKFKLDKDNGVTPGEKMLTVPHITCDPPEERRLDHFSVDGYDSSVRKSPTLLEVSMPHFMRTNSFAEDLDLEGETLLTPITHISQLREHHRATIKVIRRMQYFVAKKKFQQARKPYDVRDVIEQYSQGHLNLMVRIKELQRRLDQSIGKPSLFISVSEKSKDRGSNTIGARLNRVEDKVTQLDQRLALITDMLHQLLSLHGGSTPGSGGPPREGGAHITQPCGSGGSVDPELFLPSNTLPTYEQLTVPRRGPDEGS
Sequence of Kv channel-interacting protein 2/Potassium voltage-gated channel subfamily D member 3 (Q9UK17 whole entry): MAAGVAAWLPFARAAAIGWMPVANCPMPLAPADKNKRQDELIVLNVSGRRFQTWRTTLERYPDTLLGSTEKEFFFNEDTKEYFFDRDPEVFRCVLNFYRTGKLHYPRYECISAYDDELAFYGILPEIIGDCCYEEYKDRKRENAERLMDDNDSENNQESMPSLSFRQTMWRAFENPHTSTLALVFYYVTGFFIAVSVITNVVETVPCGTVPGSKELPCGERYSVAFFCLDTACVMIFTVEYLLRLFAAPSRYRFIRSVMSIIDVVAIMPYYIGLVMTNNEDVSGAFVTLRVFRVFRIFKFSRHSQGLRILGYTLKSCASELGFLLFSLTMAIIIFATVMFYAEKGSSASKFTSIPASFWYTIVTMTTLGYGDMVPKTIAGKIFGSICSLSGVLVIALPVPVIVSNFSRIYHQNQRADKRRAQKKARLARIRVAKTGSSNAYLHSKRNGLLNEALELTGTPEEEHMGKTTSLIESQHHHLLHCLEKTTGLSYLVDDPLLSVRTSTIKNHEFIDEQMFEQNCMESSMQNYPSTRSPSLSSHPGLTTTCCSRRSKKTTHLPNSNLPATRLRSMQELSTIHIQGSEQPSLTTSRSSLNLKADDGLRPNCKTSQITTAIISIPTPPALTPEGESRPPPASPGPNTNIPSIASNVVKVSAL
Sequence of Kv channel-interacting protein 2/Potassium voltage-gated channel subfamily D member 3 (Q9NS61 whole entry): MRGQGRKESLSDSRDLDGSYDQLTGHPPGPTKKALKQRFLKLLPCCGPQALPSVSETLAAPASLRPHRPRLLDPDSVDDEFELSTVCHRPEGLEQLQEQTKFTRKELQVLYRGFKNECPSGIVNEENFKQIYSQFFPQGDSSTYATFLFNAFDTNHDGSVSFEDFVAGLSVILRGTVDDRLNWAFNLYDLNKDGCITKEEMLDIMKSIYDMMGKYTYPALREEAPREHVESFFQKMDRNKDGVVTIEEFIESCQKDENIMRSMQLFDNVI
Sequence of GABA-A receptor alpha-4/beta-3/delta (P28472 whole entry): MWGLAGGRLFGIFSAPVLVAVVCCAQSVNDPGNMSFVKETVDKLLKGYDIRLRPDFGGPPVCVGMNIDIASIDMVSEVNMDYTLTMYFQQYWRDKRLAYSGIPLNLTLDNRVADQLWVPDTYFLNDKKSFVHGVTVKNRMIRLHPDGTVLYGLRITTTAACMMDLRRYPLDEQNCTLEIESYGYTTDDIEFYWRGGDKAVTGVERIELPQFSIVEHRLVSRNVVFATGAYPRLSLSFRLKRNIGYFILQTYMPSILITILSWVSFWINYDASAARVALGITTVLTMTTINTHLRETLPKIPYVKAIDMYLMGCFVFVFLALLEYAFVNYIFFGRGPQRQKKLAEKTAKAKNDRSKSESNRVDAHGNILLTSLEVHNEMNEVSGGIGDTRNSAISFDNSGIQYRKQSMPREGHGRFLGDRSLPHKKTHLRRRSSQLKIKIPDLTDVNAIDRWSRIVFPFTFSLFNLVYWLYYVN
Sequence of GABA-A receptor alpha-4/beta-3/delta (P48169 whole entry): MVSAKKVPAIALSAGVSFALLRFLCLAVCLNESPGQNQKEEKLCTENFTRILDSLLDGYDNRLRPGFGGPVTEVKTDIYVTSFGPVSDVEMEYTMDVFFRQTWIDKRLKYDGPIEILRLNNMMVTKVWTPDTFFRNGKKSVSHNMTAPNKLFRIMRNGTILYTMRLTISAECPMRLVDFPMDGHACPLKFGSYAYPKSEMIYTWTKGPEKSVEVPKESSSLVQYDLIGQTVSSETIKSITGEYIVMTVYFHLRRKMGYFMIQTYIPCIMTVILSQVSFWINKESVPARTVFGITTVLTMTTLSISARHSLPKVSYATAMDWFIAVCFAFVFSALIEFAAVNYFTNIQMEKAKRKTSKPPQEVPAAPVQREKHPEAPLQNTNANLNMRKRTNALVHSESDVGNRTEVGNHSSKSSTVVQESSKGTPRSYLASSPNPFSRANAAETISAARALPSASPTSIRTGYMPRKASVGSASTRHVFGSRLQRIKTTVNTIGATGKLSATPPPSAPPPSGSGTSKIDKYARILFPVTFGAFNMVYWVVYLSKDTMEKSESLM
Sequence of GABA-A receptor alpha-4/beta-3/delta (Q06278 whole entry, further chain): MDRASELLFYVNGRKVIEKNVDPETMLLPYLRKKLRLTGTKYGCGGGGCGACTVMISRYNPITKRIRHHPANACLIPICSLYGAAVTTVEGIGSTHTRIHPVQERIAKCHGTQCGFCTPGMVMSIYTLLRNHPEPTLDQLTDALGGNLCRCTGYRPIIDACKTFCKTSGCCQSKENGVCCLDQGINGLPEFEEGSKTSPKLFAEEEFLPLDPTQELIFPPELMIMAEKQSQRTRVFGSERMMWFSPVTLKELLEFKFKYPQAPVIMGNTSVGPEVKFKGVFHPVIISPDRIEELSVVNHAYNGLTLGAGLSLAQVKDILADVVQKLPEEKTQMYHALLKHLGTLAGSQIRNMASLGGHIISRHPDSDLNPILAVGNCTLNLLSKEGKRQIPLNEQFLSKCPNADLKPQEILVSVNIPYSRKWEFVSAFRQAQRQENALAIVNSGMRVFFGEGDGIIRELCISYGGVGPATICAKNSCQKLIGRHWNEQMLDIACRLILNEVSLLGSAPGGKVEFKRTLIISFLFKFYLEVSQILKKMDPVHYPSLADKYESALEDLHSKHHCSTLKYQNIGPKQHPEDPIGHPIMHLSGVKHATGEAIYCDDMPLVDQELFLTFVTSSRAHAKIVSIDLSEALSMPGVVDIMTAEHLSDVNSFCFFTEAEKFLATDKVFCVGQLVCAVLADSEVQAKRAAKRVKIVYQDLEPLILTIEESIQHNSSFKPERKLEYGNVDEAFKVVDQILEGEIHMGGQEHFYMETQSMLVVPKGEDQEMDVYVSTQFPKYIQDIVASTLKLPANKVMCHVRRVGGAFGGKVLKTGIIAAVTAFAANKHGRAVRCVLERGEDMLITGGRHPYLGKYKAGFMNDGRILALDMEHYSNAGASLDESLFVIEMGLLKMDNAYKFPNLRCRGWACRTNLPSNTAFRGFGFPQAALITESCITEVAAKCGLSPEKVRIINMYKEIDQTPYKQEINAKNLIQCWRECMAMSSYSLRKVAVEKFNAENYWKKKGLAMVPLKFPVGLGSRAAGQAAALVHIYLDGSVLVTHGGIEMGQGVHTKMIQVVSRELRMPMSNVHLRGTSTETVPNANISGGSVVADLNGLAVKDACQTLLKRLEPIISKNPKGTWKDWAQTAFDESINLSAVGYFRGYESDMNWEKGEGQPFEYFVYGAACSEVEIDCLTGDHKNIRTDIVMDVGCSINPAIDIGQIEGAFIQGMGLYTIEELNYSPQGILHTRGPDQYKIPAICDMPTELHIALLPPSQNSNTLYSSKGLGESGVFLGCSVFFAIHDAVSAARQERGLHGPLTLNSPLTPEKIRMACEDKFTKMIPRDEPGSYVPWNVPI
Sequence of Cytochrome P450 3A4 (P08684 whole entry): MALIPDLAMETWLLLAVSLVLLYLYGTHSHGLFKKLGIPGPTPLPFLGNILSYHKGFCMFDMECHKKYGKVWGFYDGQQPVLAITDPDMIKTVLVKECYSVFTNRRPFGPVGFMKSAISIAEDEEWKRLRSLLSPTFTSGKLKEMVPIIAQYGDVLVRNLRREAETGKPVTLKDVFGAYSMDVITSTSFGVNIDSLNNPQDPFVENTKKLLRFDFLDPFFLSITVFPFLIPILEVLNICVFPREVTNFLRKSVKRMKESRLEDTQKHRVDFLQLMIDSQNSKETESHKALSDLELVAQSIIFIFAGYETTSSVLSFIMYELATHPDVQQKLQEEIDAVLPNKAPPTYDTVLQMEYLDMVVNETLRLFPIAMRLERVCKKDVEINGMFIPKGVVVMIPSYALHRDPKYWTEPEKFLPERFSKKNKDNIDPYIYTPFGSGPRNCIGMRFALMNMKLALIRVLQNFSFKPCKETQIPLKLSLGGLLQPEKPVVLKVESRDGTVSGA

For C[C@@]1(O)CC[C@H]2[C@H](CC[C@@H]3[C@@H]2CC[C@]2(C)[C@@H](C(=O)Cn4cc(C#N)cn4)CC[C@@H]32)C1 [ZURANOLONE], the IC50 (Cytochrome P450 2B6) was > 30 µM, the fraction unbound at 6 h, 10 µM [1] was 0.012 and the Activity [2] was 57%. The inhibition [3] was 88%, the IC50 (Cytochrome P450 2C9) was > 30 µM and the Kp at 0.5 h [4] was 4.2. For the same molecule, the IC50 [5] was > 30 µM, the IC50 [6] was > 30 µM and the CLH [7] was 0.6 L/h/kg. It also gave a fraction unbound at 6 h, 10 µM [8] of 0.016, a bioavailability [9] of 62% and a clearance [10] of 1.67 mL/min/kg. For the same molecule, the CLhep predicted at 10 µM [11] was 3.33 mL/min/kg, the MEC (Mus musculus) was 85 nM and the IC50 (Cytochrome P450 1A2) was > 30 µM. The EC50 [12] was 299 nM, the fraction unbound at 6 h, 10 µM [13] was 0.01 and the IC50 [14] was > 30 µM. For the same molecule, the clearance [15] was 25 mL/min/kg, the inhibition [16] was 95% and the IC50 (Cytochrome P450 3A4) was > 30 µM. For the same molecule, the fraction unbound at 6 h, 10 µM [17] was 0.012, the Emax [18] was 473% and the IC50 [19] was > 30 µM. The bioavailability [20] was 68%, the IC50 (Cytochrome P450 2C19) was > 30 µM and the CLH [21] was 1 L/h/kg. For the same molecule, the IC50 [22] was > 30 µM, the IC50 [23] was > 30 µM and the CLH [24] was 0.9 L/h/kg. For the same molecule, the CLH [25] was 0.6 L/h/kg, the IC50 (Cytochrome P450 2D6) was > 30 µM and the CLhep predicted at 10 µM [26] was 70 mL/min/kg. For the same molecule, the bioavailability [27] was 32%, the CLint scaled at 10 µM [28] was 102 mL/min/kg and the IC50 [29] was > 30 µM. It also gave an IC50 [30] of 7 nM, a clearance [31] of 23.3 mL/min/kg and a CLhep predicted at 10 µM [32] of 36.7 mL/min/kg. The CL (Canis familiaris) was < 10%, the logD at 20 µM [33] was 4.6 and the Emax [34] was 574%. For the same molecule, the IC50 [35] was > 30 µM and the solubility thermodynamic at 1 h, 10 µM [36] was 2 µM (≈ 0.819 µg/mL).
